Measurements: patent US20190038597A1, “PREVENTION OF VASCULAR AND CARDIAC FIBROSIS VIA IRE1ALPHA INHIBITION” (McMaster University, priority 2017, published 2019)

Assays:
IRE1α endonuclease = biological target: T1, IRE1α endonuclease (Rattus norvegicus, UniProt A0A4Y1YQ52); experiment: XBP1 splicing assay in VSMCs; type: cell-based; conditions: tunicamycin (1 μg/ml) 6 h, 4μ8c 30 μM or STF-083010 60 μM, FIG. 1A
T1 construct: endogenous in cells; host or cells: primary aortic vascular smooth muscle cells from 5-week old WKY rats
Description: (§1) VSMCs were treated with tunicamycin (1 μg/ml) and either 4μ8c (30 μM) or STF-083010 (60 μM) for 6 h or 24 h. (A) Agarose gel for assessment of XBP1 splicing after 6 h of treatment with tunicamycin and densitometric quantification. (B) Western blot for assessment of ER chaperone expression after 24 h tunicamycin treatment with or without inhibition of IRE1α by 4μ8c. Data is presented as mean±SEM. *, p<0.05 vs. Vehicle; #, p<0.05 vs. Tm.
(§2) VSMCs were cultured in DMEM/F12 containing 1% FBS. Confluent cells were treated with L-ascorbic acid-2-phosphate (100 μg/ml) and either TGF-β1 (5 ng/ml) or Ang II (1 μM). (A) Agarose gel for assessment of TGF-β1-induced XBP1 splicing in VSMCs after 24 h. (B) Picro-Sirius Red assay for measurement of collagen deposition induced by combined TGF-β1 and AA2P treatment after 72 h, and inhibition by 4μ8c and STF-083010. (C) Western blot for assessment of collagen chaperone expression after treatment of TGF-β1 and 4μ8c for 48 h. *, p<0.05. (D) Measurement of Ang II-induced collagen production and inhibition by 4μ8c and STF-083010 after 72 h.
VSMCs were isolated from the aortas of 5-week old WKY rats using the explant method^29. The thoracic aorta was removed from the animal and placed in ice-cold 5× Antibiotics-Antimycotics solution (ThermoFisher). The adventitia was gently removed and the aorta was cut longitudinally. The endothelial layer was removed by gentle scraping with forceps. […]
Total RNA was extracted from cultured cells and rat tissues using the TRIzol reagent (ThermoFisher) according to manufacturer's instructions. RNA concentration and purity were measured using a Nanodrop ND-1000 spectrophotometer (NanoDrop Technologies, Inc.). […]
Aortic VSMCs were isolated from normotensive WKY rats and used for in vitro experiments. […] To test the ability of these compounds to block the IRE1α endonuclease, XBP1 splicing was measured in VSMCs treated with the ER stress inducer tunicamycin for 6 h with or without pre-treatment by 4μ8c or STF-083010. […]

GRP78, GRP94 and PDI = experiment: Western blot of ER chaperone / ER stress marker expression in VSMCs; type: cell-based, rat; conditions: 24 h tunicamycin treatment, FIG. 1B
Description: as §1, §2
VSMCs were isolated from the aortas of 5-week old WKY rats using the explant method^29. The thoracic aorta was removed from the animal and placed in ice-cold 5× Antibiotics-Antimycotics solution (ThermoFisher). The adventitia was gently removed and the aorta was cut longitudinally. The endothelial layer was removed by gentle scraping with forceps. The aorta was cut into 3 mm^2 squares and placed on a 6 well plate in DMEM/F12 medium containing 10% fetal bovine serum (FBS). Explants were incubated undisturbed in a 5% CO2 incubator at 37° C. for 1 week and then passaged. […]
Cells were lysed in 1× Laemmli buffer and protein content was quantified using the BioRad DC Protein Assay (BioRad, Mississauga, Canada). […]

VSMCs = experiment: Picro-Sirius Red assay of collagen synthesis in VSMCs; type: cell-based, rat
Description: as §2
VSMCs were isolated from the aortas of 5-week old WKY rats using the explant method^29. The thoracic aorta was removed from the animal and placed in ice-cold 5× Antibiotics-Antimycotics solution (ThermoFisher). The adventitia was gently removed and the aorta was cut longitudinally. The endothelial layer was removed by gentle scraping with forceps. The aorta was cut into 3 mm^2 squares and placed on a 6 well plate in DMEM/F12 medium containing 10% fetal bovine serum (FBS). Explants were incubated undisturbed in a 5% CO2 incubator at 37° C. for 1 week and then passaged. Sprague-Dawley renal fibroblasts were purchased (Cell Biologics) and cultured in low glucose DMEM/F12 medium containing 10% FBS, streptomycin (100 μgimp, and penicillin (100 U/ml, Invitrogen, Burlington, ON). Cells between passages 5 and 10 were used for experiments. Cells were cultured in medium containing 1% FBS overnight before treatment.
Collagen synthesis was measured using a Picro-Sirius Red-based assay as previously described^30. Briefly, cells cultured on a 96 well plate were fixed in methanol for 10 minutes at −20° C. Cells were washed once with PBS and incubated with Picrosirius Red stain (0.1% Direct Red 80 in saturated picric acid) for 1 h at room temperature. After the staining solution was removed, the cells were washed three times with 0.1% acetic acid and then imaged. The dye was then eluted with 0.1 N NaOH for 10 minutes on a rocking platform. Absorbance at 540 nm was measured using a Spectramax Plus Microplate Reader (Molecular Devices).
Cells were co-treated with either 4μ8c or S′TF-083010 to inhibit IRE1α endonuclease activity. TGF-β1 induced XBP1 splicing after 24 h, which was blocked by co-treatment with 4μ8c (FIG. 2A). Collagen production was measured using a Picro-Sirius Red-based colorimetric assay. TGF-β1 combined with AA2P induced collagen synthesis in the VSMCs, which was inhibited by co-treatment with 4μ8c or STF-083010 (FIG. 2B).

T1 sequence (A0A4Y1YQ52 21-977): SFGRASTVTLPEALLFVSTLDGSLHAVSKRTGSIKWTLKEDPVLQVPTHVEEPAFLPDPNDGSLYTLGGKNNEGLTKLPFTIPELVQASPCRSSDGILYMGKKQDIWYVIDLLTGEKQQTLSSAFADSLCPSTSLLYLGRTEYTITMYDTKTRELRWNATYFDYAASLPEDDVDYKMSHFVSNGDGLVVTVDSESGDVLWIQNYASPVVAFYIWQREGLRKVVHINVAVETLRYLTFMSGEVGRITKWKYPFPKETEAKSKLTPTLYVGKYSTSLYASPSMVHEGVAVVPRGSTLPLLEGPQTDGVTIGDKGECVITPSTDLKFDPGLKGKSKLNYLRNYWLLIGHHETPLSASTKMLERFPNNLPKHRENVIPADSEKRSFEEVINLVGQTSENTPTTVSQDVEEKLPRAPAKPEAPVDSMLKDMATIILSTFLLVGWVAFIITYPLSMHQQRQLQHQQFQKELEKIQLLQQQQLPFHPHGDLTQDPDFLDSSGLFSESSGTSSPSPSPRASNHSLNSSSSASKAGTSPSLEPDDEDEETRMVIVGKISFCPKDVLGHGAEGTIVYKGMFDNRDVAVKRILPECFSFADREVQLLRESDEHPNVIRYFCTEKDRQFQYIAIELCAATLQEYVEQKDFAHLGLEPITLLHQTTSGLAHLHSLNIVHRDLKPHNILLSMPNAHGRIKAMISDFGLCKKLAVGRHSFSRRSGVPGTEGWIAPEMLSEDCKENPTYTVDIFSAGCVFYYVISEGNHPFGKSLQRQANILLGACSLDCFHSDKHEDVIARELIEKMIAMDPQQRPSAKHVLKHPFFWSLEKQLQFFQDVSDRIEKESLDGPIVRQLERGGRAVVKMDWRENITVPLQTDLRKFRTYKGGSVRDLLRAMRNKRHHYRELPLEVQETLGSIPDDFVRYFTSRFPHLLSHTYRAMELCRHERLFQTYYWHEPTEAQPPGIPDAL

O=S(=O)(/N=C/c1c(O)ccc2ccccc12)c1cccs1 [STF-083010, N-[(2-Hydroxy-1-naphthyl)methylene]-2-thiophenesulfonamide]
spliced-to-unspliced XBP1 ratio (IRE1α endonuclease): reduced
elevated expression levels of ER stress markers GRP78, GRP94 and PDI (GRP78, GRP94 and PDI): reduced
collagen synthesis induced by TGF-β1 combined with AA2P (VSMCs; 72 h, co-treatment, FIG. 2B): inhibited
collagen synthesis induced by Ang II (VSMCs; Ang II (1 μM) 72 h, FIG. 2D): inhibition
